Test results as given in patent US9937192B2, “Combination therapy to treat mycobacterium diseases” (priority 2012, dated 2018).
In brackets after ≈: the same amount, converted by molar mass. Where a name gives a salt, the structure may show the parent alone. Read-outs that look alike come from different tables or passages of the source.

Key:
[1] = Seven-Day Oral (Gavage) Toxicity and Toxicokinetics Study in Rats; assay type: in vivo, Crl:CD(SD) rats; details: male rats
Source text: Seven-Day Oral (Gavage) Toxicity and Toxicokinetics Study in Rats
Crl:CD(SD) rats were obtained from Charles River Laboratories of Stone Ridge, N.Y. The animals were laboratory bred and experimentally naïve. Rats were chosen because they are a species that is commonly used for nonclinical toxicity evaluations.
Animals received the test article or vehicle by oral gavage for 7 consecutive days and were terminated the day following completion of dosing. The first day of dosing was designated as Day 1 of the study. The animals were evaluated for changes in clinical signs, body weight, and other parameters as described below.
The vehicle and test article were administered by oral gavage once daily for 7 consecutive days at a dose volume of 10 mL/kg body weight for Group A and Groups B-D, respectively. The test article and vehicle were administered by oral gavage twice daily, approximately 8 hours apart, for 7 consecutive days at a dose volume of 10 mL/kg body weight for Group E and Group F, respectively. The actual volume administered to each animal was calculated and adjusted based on the most recent body weight of each animal.
During the treatment period, daily cageside observations were made and recorded predose and postdose (following the first dose only). The postdosing observations made during treatment occurred at the following times based on Cmax/Tmax for the two compounds from previous studies:
Prior to start of dosing, body weights were measured for randomization on Day 1. During the treatment, body weights were measured on Day 1 and Day 7. In addition, fasted body weights were measured prior to necropsy for calculation of organ/body weight ratios.
Throughout the study, food consumption was measured daily starting 3 days prior to start of dosing.
Blood samples for evaluation of hematology, coagulation, and serum chemistry parameters were collected from all animals from the retro-orbital plexus (under CO2/O2 anesthesia, for the main study animals) or jugular vein cannula (for the toxicokinetic animals) prior to necropsy. Due to residual heparin used to keep the cannulas patent for the toxicokinetic animals, coagulation samples from these rats, were not able to be analyzed. The animals were fasted overnight prior to blood collection. On the day of blood collection for clinical pathology analyses, the animals were not necropsied until after the blood was collected and the samples judged to be acceptable by the clinical pathology group.
On the 1st and 7th day of dosing, blood samples (approximately 0.5 mL/sample) were collected from the jugular vein cannula for all toxicokinetic animals at the timepoints listed below into K3EDTA-containing tubes. […] Prior to each collection, a small sample of blood (with heparin blocking solution) was removed from the cannula and discarded. A new syringe was placed on the cannula, and the protocol-required sample was taken. The syringe with the blood sample was removed, and a new syringe with saline attached to the cannula. Blood volume was replaced with an equal volume of saline and then blocking solution placed in the cannula. Each animal was returned to its cage until the next collection timepoint.
For all animals euthanized at scheduled necropsies, the kidneys, liver, and prostate gland were weighed. Following weighing, an approximate 1 gram sample of liver and kidney was weighed, transferred to Precellys 7 mL CK28 Tissue Homogenizing tubes (Cat. No. 0904-01), snap-frozen, and analyzed.
For all animals scheduled for the terminal necropsy, the kidneys, liver, and prostate were embedded in paraffin, sectioned and stained with hematoxylin and eosin for further examination by light microscopy. For Groups A, D, E, and F only, the remaining tissues listed above were embedded in paraffin, sectioned and stained with hematoxylin and eosin for further examination by light microscopy. […]

[2] = test system: Mycobacterium tuberculosis; test: Mycobacterium tuberculosis Serum Shift MIC Assay (Protocol 5); assay type: cell-based; details: ATCC 35801 / ERDMAN
Source text: Protocol 5. Protocol for Mycobacterium tuberculosis Serum Shift MIC Assay
Media Prep: • 1. […] It was important that all media and supplements were sterilized prior to MICs. • 2. Prepared all media below and inoculated as described in next section. Tested all compounds against Mtb using each media. • a. […] 7H9+0.2% glycerol+2 g/L dextrose+0.85 g/L NaCl+0.003 g/L catalase (0% FBS). • c. 2×7H9+0.2% glycerol+2 g/L dextrose+0.85 g/L NaCl+0.003 g/L catalase combined with equal volume Fetal Bovine Serum (50% FBS).
Inoculum Prep: • 1. Using BBL Prompt, picked 5-10 well-separated colonies and inoculated 1 ml sterile saline that came in the kit. Typically plates were two to three weeks of age when used for this assay due to the slow growth of this organism in culture. • 2. Vortexed well, then sonicated in water bath for 30 sec providing a suspension of ˜10^8 cells/ml. Actual density could be confirmed by plating out dilutions of this suspension. • 3. Prepared inoculum in each of the three media formulations by diluting the BBL Prompt suspension 1/200 (for example: transferred 0.2 ml of cells to 40 ml of medium) to obtain a starting cell density of […]. • 4. Used 100 μl cells (˜5×10^4 cells) to inoculate each microtiter well containing 1 μl of drug in DMSO (see below).
Drug Dilutions, Inoculation, MIC Determination: • 1. Control drug stocks Isoniazid and Novobiocin were prepared at 10 mM in 100% DMSO while Ciprofloxacin and Rifampin were prepared at 1 mM in 50% DMSO and 100% DMSO, respectively. Prepared dilutions—dispensed 100 μL of the stock solution into the first column of a 96-well plate. Prepared 11-step, 2-fold serial dilutions across the row for each compound by transferring 50 μl from column 1 into 50 μl of DMSO in column 2. Continued to transfer 50 μL from column 2 through column 11 while mixing and changing tips at each column. Left column 12 with DMSO only as a control. • 2. Transferred 1 μl of each dilution into an empty microtiter well prior to the addition of 100 μl of cells. The starting concentration of Isoniazid and Novobiocin was 100 μM after the dilution into medium+cells; the starting concentration of Ciprofloxacin and Rifampin was 10 μM after the dilution into medium+cells. Compound concentrations decreased in 2× steps moving across the rows of the microtiter plate. […] Measured background fluorescence at Excitation 492 nm, Emission 595 nm and returned the plate to the incubator for another 24 hours.
After 24 hours the fluorescence of each well was measured at Excitation 492 nm, Emission 595 nm.
Percent inhibition by a given compound was calculated as follows: Percent inhibition=100−([well fluorescence-average background fluorescence]/[DMSO control−average background fluorescence]×100). […]

[3] = test system: M. tuberculosis H37Rv; test: Monotherapy against established TB in mice (dose-ranging activity study); assay type: in vivo; details: for Log cfu (lung) / Log Reduction: BALB/c mice, M. tuberculosis H37Rv; for Log cfu (lung): 4 weeks of treatment; for Log Reduction: 4 weeks, vs untreated control
[4] = Rat IV Study (pharmacokinetics); details: male Sprague Dawley rats, plasma analyte = label
[5] = test system: intracellular M. tuberculosis in THP-1 cells; test: microbe, parasite or virus in culture; assay type: cell-based; details: Mycobacterium tuberculosis, H37RA; for MIC: read-out: MIC, Macrophage Cells
[6] = test system: M. tuberculosis; test: microbe, parasite or virus in culture; assay type: cell-based; details: for MIC: Mycobacterium tuberculosis, H37RA, read-out: MIC, Broth
[7] = test system: M. tuberculosis H37Rv; test: Minimum bactericidal concentration (MBC) assay; assay type: cell-based; details: 0.125 ug/mL
[8] = test system: Non-Replicating (NRP) M. tuberculosis H37Ra; test: Non-replicating (NRP) M. tuberculosis H37Ra (luciferase) culture assay; assay type: cell-based; details: Mycobacterium tuberculosis, 336 h, read on day 14
[9] = 100 mg/kg daily 5 days per week
[10] = Compound W dosed IV bolus 1 mg/kg in D5W
[11] = Compound W dosed IV bolus 5 mg/kg in D5W

CCNC(=O)Nc1nc2cc(-c3cnc(C(C)(C)O)nc3)cc([C@H]3CCCO3)c2[nH]1 [Compound 13, methanesulfonic acid salt of 1-ethyl-3-[5-[2-(1-hydroxy-1-methyl-ethyl)pyrimidin-5-yl]-7-[(2R)-tetrahydrofuran-2-yl]-1H-benzimidazol-2-yl]urea]
dose levels at which no adverse toxicity was demonstrated ([1]; 7 days oral gavage): up to 200 mg/kg/day | adverse observations or effects on mean body weight ([1]; 7 days oral gavage, all dose groups): No adverse observations or effects on mean body weight | histopathological findings ([1]; any dose regimen): No test article-related histopathological findings | NOEL (No-Observable-Effect-Level) ([1]; once a day for 7 days orally via gavage): 200 mg/kg | Mean food consumption ([1]; once daily 100 or 200 mg/kg, not considered adverse): reduced | exposures for different dosage levels ([1]; toxicokinetics): dose related | MIC ([2]; M. tuberculosis Erdman ATCC 35801, read-out: MIC): 0.045 µg/mL | MIC ([2]; M. tuberculosis Erdman ATCC 35801 with Mouse Serum): 2 µg/mL

CCNC(=O)Nc1nc2cc(-c3cnc(C(C)(C)OP(=O)([O-])[O-])nc3)c(F)c([C@H]3CCCO3)c2[nH]1.[Na+].[Na+] [Compound W, disodium (R)-2-(5-(2-(3-ethylureido)-6-fluoro-7-(tetrahydrofuran-2-yl)-1H-benzo[d]imidazol-5-yl)pyrimidin-2-yl)propan-2-yl phosphate]
Log cfu (lung) ([3]; 10 mg/kg daily 5 days per week): 6.38 | Log Reduction ([3]; 10 mg/kg daily 5 days per week): 0 | Log cfu (lung) ([3]; 30 mg/kg daily 5 days per week): 5.51 | Log Reduction ([3]; 30 mg/kg daily 5 days per week): 0.49 | Log cfu (lung) [3, 9]: 5.35 | Log Reduction [3, 9]: 0.65 | activity compared with no treatment ([3]; at 30 and 100 mg/kg, p<0.01 by one-way ANOVA with Dunnett's post-test): superior to no treatment | AUCextrap [4, 10]: 419 ng·h/mL | Cl_obs [4, 10]: 46.7 mL/min/kg | Vss_obs [4, 10]: 0.38 L/kg | t½ [4, 10]: 0.9 h | AUCextrap [4, 11]: 1120 ng·h/mL | Cl_obs [4, 11]: 84.6 mL/min/kg | Vss_obs [4, 11]: 5.8 L/kg | t½ [4, 11]: 7.2 h

CC[C@@H](CO)NCCN[C@@H](CC)CO [Ethambutol]
MIC [5]: 1.26 µg/mL (≈ 6.17 µM) | MIC [6]: 2.55 µg/mL (≈ 12.5 µM)

NNC(=O)c1ccncc1 [Isoniazid, isonicotinohydrazide, reference compound]
Log cfu (lung) ([3]; 10 mg/kg daily 5 days per week): 5.01 | Log Reduction ([3]; 10 mg/kg daily 5 days per week): 0.99 | Log cfu [7]: 4.28 | Log Reduction ([7]; vs untreated control): 1.85 | MIC [5]: 0.012 µg/mL (≈ 0.0875 µM) | IC50 [8]: > 50 µg/mL | MIC [6]: 0.21 µg/mL (≈ 1.53 µM)

CC(=O)NC[C@H]1CN(c2ccc(N3CCOCC3)c(F)c2)C(=O)O1 [Linezolid]
MIC [5]: 0.37 µg/mL (≈ 1.1 µM) | MIC [6]: 0.53 µg/mL (≈ 1.57 µM)

CO[C@@H]1[C@@H](OC(N)=O)[C@@H](O)[C@H](Oc2ccc3c(O)c(NC(=O)c4ccc(O)c(CC=C(C)C)c4)c(=O)oc3c2C)OC1(C)C [Novobiocin]
IC50 ([5]; THP-1, 120 h, read-out: Mtb H37Ra in THP1 Cells (IC50)): 2.1 µg/mL (≈ 3.43 µM) | Erdman (MIC) [6]: 61 µg/mL

CO[C@H]1/C=C/O[C@@]2(C)Oc3c(C)c(O)c4c(O)c(c(/C=N/N5CCN(C)CC5)c(O)c4c3C2=O)NC(=O)/C(C)=C\C=C\[C@H](C)C(O)[C@@H](C)[C@@H](O)[C@@H](C)[C@H](OC(C)=O)[C@@H]1C (stereo partly drawn) [Rifampin, (7S,9E,11S,12R,13S,14R,15R,16R,17S,18S,19E,21Z)-2,15,17,27,29-pentahydroxy-11-methoxy-3,7,12,14,16,18,22-heptamethyl-26-{(E)-[(4-methylpiperazin-1-yl)imino]methyl}-6,23-dioxo-8,30-dioxa-24-azatetracyclo[23.3.1.1^4.7.0^5.28]triaconta-1(28),2,4,9,19,21,25(29),26-octaen-13-yl acetate]
Log cfu (lung) ([3]; 10 mg/kg daily 5 days per week): 4.38 | Log Reduction ([3]; 10 mg/kg daily 5 days per week): 1.62 | MIC [5]: 0.008 µg/mL | IC50 [8]: < 0.05 µg/mL | MIC [6]: 0.03 µg/mL
